Measured values as given in patent US20230157998A1, “Methods of Inhibiting SARS-CoV-2 Replication and Treating Corona Virus Disease 2019” (Pfizer Inc., priority 2020, published 2023).

Experiments:
SARS-CoV-2 3CL protease = SARS-CoV-2 3CL protease (Severe acute respiratory syndrome coronavirus 2, UniProt P0DTD1); assay: biochemical; conditions: for IC50: 15 nM enzyme, 60 min at 23° C.; for Ki: fit to the Morrison equation
SARS-CoV-2 = assay: Antiviral activity in HeLa-ACE2 cells (viral protein detection); format: cell-based; conditions: Severe acute respiratory syndrome coronavirus 2, compound alone

Compound `CC(C)(C)C[C@H](NC(=O)[C@H]1CCCO1)C(=O)N[C@@H](C[C@@H]1CCNC1=O)C(=O)COC(=O)c1c(Cl)cccc1Cl` [(3S)-3-({4-methyl-N-[(2R)-tetrahydrofuran-2-ylcarbonyl]-L-leucyl}amino)-2-oxo-4-[(3S)-2-oxopyrrolidin-3-yl]butyl 2,6-dichlorobenzoate] has an IC50 (SARS-CoV-2 3CL protease) of 0.017 µM and a Ki (SARS-CoV-2 3CL protease) of 0.00271 µM.
Compound `COc1cccc2[nH]c(C(=O)N[C@@H](CC(C)C)C(=O)N[C@@H](C[C@@H]3CCNC3=O)C(=O)COC(=O)C3CC3)cc12` [(3S)-3-({N-[(4-methoxy-1H-indol-2-yl)carbonyl]-L-leucyl}amino)-2-oxo-4-[(3S)-2-oxopyrrolidin-3-yl]butyl cyclopropanecarboxylate] has an IC50 (SARS-CoV-2 3CL protease) of 0.128 µM and a Ki (SARS-CoV-2 3CL protease) of 0.0427 µM.
`COc1cccc2[nH]c(C(=O)N[C@@H](Cc3ccccc3)C(=O)N[C@@H](C[C@@H]3CCNC3=O)C(=O)CO)cc12` [I, N-((S)-1-(((S)-4-hydroxy-3-oxo-1-((S)-2-oxopyrrolidin-3-yl)butan-2-yl)amino)-1-oxo-3-phenylpropan-2-yl)-4-methoxy-1H-indole-2-carboxamide] showed an IC50 (SARS-CoV-2 3CL protease) of 0.375 µM and a Ki (SARS-CoV-2 3CL protease) of 0.139 µM.
Work on `CCC(CC)COC(=O)[C@H](C)N[P@](=O)(OC[C@H]1O[C@@](C#N)(c2ccc3c(N)ncnn23)[C@H](O)[C@@H]1O)Oc1ccccc1` [remdesivir, reference compound] yielded an EC90 (SARS-CoV-2) of 0.168 µM.
Work on `CC(C)(C)C[C@H](NC(=O)c1cc2ccccc2[nH]1)C(=O)N[C@@H](C[C@@H]1CCNC1=O)C(=O)CO` [N-((1S)-1-{[((1S)-3-hydroxy-2-oxo-1-{[(3S)-2-oxopyrrolidin-3-yl]methyl}propyl)amino]carbonyl}-3,3-dimethylbutyl)-1H-indole-2-carboxamide] yielded an IC50 (SARS-CoV-2 3CL protease) of 0.024 µM and a Ki (SARS-CoV-2 3CL protease) of 0.00281 µM.
`O=C(N[C@@H](CC1CC1)C(=O)N[C@@H](C[C@@H]1CCNC1=O)C(=O)c1nc2ccccc2s1)c1ccccn1` [H, N-((S)-1-(((S)-1-(benzo[d]thiazol-2-yl)-1-oxo-3-((S)-2-oxopyrrolidin-3-yl)propan-2-yl)amino)-3-cyclopropyl-1-oxopropan-2-yl)picolinamide] showed an IC50 (SARS-CoV-2 3CL protease) of 8.4 µM and a Ki (SARS-CoV-2 3CL protease) of 3.05 µM.
